The values that follow come from patent US20160362418A1, “CARBOXAMIDE-SUBSTITUTED XANTHENE DYES” (priority 2015, published 2016).

A short description of this series: Spectral properties of fluorescent dyes (Abs/Em). The conditions noted are these: for Abs: absorbance maximum, first number of Abs/Em; for Em: emission maximum, second number of Abs/Em. In kind it is physicochemical. The source says:
The spectral properties of dyes can be tuned by modifying the rhodamine core of dyes.

In turn, `CC(=O)O.CN(CCS(=O)(=O)O)C(=O)c1ccccc1-c1c2ccc(=N)cc-2oc2cc(N)ccc12` [Compound 1] gave an Abs of 518 nm and an Em of 539 nm.
Taken in the same sequence, the figures for `CC(=O)O.CN(CCS(=O)(=O)[O-])C(=O)c1ccccc1C1=c2cc3c(cc2Oc2cc4c(cc21)C(CS(=O)(=O)O)=CC(C)(C)N4C)=[N+](C)C(C)(C)C=C3CS(=O)(=O)O` [Compound 6] were 601 nm and 623 nm.
